According to PMC12363935, “Unc-51 Like Kinase 3 (ULK3) is essential for autophagy and cell survival in multiple myeloma” (Research Square, 2025):
“And” between values parts separate entries of the source, which are not always exact repeats. Equal values may be shown once.

System: primary CD138+ MM cells
Assay: EMMA ex vivo platform, live cell imaging, 96 hours, collagen matrix with bone marrow stroma and patient plasma
Format: cell-based
Set-up: scale not given here
From the text: For clinical robustness, we tested the activity of MA9 in MM patient samples using our ex vivo mathematical myeloma advisor (EMMA) platform (Supplementary Table 1). […]
For these assays, we used a novel EMMA platform developed at Moffitt. Further details are included in the supplemental Materials. […]
400 Ex vivo drug sensitivity characterization
401 An ex vivo assay was used to quantify the chemosensitivity of primary MM cells. Fresh BM
402 aspirate cells were enriched for CD138+ expression using Miltenyi (Bergisch Gladbach, Germany)
MM cells (CD138+) were seeded in Corning
404 Cell BIND 384 well plates (Corning, NY) with collagen I and previously established human-
407 inactivated), penicillin/streptomycin, and patient-derived plasma (10%, freshly obtained from
409 added using a robotic plate handler so that every drug/combination was tested at 5 (fixed
410 concentration ratio, for combinations) concentrations (1:3 serial dilution) in two replicates.
411 Negative controls (supplemented growth media with and without the vehicle control dimethyl
412 sulfoxide [DMSO]) were included, as well as positive controls for each drug (cell line MM1.S at
413 highest drug concentration). Plates were placed in a motorized stage microscope (EVOS Auto FL,
414 Life Technologies, Carlsbad, CA) equipped with an incubator and maintained at 5% CO2 and 37
415 °C. […]
Digital image analysis computes the percent
418 viability of MM cells for each time point and experimental condition (drug and concentration)

Which AUC (Pt648, LRMM) does the source give for `CC(C)C[C@H](NC(=O)[C@H](Cc1ccccc1)NC(=O)c1cnccn1)B(O)O` [BTZ, bortezomib] here?
Its AUC is 48.724.

And the AUC (Pt652, LRMM)?
The AUC was 65.980.

And the AUC (Pt655, LRMM)?
Its AUC is 29.968.

What about the AUC (Pt663, LRMM) of the same compound?
Its AUC is 45.417.

And the AUC (Pt665, LRMM)?
Its AUC is 47.552.

And the AUC (Pt666, LRMM)?
Its AUC is 37.470.

And the AUC (Pt669, ERMM)?
The AUC was 37.041.

And the AUC (Pt672, NDMM)?
Its AUC is 45.751.

What about the AUC (Pt677, NDMM) of the same compound?
The AUC was 30.916 and 33.959.

And the AUC (Pt680, ERMM)?
The AUC was 39.728 and 39.652.

What about the AUC (Pt685, ERMM) of the same compound?
The AUC was 34.249.

What about the AUC (Pt689, NDMM) of the same compound?
The AUC was 40.257.

What about the AUC (Pt691, LRMM) of the same compound?
The AUC was 38.965.

What about the AUC (Pt693, SMOL) of the same compound?
The AUC was 87.905.

And the AUC (Pt694, NDMM)?
The AUC was 31.313.

And the AUC (Pt695, LRMM)?
The AUC was 46.540.

What about the AUC (Pt697, NDMM) of the same compound?
The AUC was 44.112.

What about the AUC (Pt700, NDMM) of the same compound?
Its AUC is 42.763 and 44.093.

And the AUC (Pt707, LRMM)?
Its AUC is 60.814.

What about the AUC (Pt737, MGUS) of the same compound?
Its AUC is 35.864.

And the AUC (Pt738, NDMM)?
Its AUC is 46.001.

What about the AUC (Pt740, SMOL) of the same compound?
The AUC was 32.547.

And the AUC (Pt745, NDMM)?
Its AUC is 47.650.

What about the AUC (Pt852, NDMM) of the same compound?
Its AUC is 23.262.

What about the AUC (Pt853, ERMM) of the same compound?
Its AUC is 63.604 and 64.834.

What about the AUC (Pt856, NDMM) of the same compound?
Its AUC is 36.749.

What about the AUC (Pt866, NDMM) of the same compound?
The AUC was 36.635.

And the AUC (Pt875, NDMM)?
The AUC was 45.303.

And the AUC (Pt888, LRMM)?
The AUC was 100.000.

What about the AUC (Pt893, LRMM) of the same compound?
The AUC was 100.000.

And the AUC (Pt899, SMOL)?
Its AUC is 59.818.

And the AUC (Pt906, NDMM)?
Its AUC is 59.784.

What about the AUC (Pt909, LRMM) of the same compound?
Its AUC is 29.196.

What about the AUC (Pt912, PCL) of the same compound?
The AUC was 26.800.

What about the AUC (Pt917, LRMM) of the same compound?
Its AUC is 78.984.

And the AUC (Pt920, LRMM)?
Its AUC is 42.040.

What about the AUC (Pt923, LRMM) of the same compound?
Its AUC is 45.019.

What about the AUC (Pt932, LRMM) of the same compound?
Its AUC is 28.145.

And the AUC (Pt933, LRMM)?
The AUC was 39.573.

What about the AUC (Pt935, NDMM) of the same compound?
The AUC was 31.629.

And the AUC (Pt936, LRMM)?
Its AUC is 45.292.

And the AUC (Pt937, NDMM)?
Its AUC is 46.111 and 46.768.

And the AUC (Pt940, LRMM)?
Its AUC is 43.043.

And the AUC (Pt956, NDMM)?
The AUC was 64.107 and 61.177.

And the AUC (Pt957, LRMM)?
Its AUC is 82.570.

And the AUC (Pt961, NDMM)?
Its AUC is 70.805 and 67.849.
